Laboratory results: patent publication US11110082B2, “Tyrosine kinase inhibitors” (Rigel Pharmaceuticals, Inc., priority 2016, dated 2021)
pEC50: −log10 of the molar value.

Target: T1, MerTK (Homo sapiens, UniProt Q12866)
T1 construct: Seed HUVECs (10K cells/well) in EBM-2 complete media; host or cells: HUVEC (primary human umbilical vein endothelial cells)
T1 sequence (Q12866 21-999): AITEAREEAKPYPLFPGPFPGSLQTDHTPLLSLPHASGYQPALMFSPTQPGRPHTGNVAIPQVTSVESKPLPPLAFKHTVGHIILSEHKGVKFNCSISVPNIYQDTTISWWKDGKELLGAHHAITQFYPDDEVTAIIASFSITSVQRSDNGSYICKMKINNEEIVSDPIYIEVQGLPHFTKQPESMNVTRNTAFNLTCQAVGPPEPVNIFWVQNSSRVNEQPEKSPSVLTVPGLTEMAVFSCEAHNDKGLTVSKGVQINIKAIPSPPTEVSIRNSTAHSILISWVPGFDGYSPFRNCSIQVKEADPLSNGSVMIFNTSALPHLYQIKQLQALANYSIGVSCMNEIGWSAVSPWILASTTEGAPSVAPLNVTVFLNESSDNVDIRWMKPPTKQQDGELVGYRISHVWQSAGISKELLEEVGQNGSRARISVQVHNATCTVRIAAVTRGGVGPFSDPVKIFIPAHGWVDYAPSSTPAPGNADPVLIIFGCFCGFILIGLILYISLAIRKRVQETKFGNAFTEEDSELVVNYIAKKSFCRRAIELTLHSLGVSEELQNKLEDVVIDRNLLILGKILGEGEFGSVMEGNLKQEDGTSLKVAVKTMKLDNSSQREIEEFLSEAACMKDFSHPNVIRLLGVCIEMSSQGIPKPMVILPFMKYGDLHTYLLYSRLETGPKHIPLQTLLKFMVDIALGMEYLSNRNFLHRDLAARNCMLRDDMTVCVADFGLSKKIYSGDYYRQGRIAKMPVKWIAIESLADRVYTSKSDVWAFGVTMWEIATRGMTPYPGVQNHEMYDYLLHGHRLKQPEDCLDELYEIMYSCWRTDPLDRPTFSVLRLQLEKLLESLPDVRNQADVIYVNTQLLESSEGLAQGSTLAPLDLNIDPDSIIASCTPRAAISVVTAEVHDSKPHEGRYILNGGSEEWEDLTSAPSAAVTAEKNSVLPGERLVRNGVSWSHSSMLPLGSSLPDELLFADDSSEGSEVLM
Assay: PAKT HTRF-HUVEC assay (pAkt Ser473 HTRF after anti-human MerTK-XL stimulation)
Type: cell-based
Details: HUVEC cells, 1 hour compound, stimulated with anti-human MerTK-XL 1 ug/mL for 10 minutes, read-out: inhibition of MerTK
Procedure, shortened: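 Akt Ser473 phosphorylation measured by HTRF in lysates of serum-starved HUVECs. Cells received compound for 1 h at 37° C before a 10-min challenge with antibody-cross-linked anti-MerTK (1 ug/mL final); EC50 derived by curve fit.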

| Compound | pEC50 |
| --- | --- |
| O=c1c2cc(N3CCN(C4CC4)CC3)ccc2c2cnc(NCC3CC3)nc2n1[C@H]1CC[C@H](O)CC1 [Compound 177] | 6.32 |
| CCC(F)(F)CNc1ncc2c3ccc(CN4CCOCC4)cc3c(=O)n([C@H]3CC[C@H](O)CC3)c2n1 [Compound 1, trans-3-((2,2-Difluorobutyl)amino)-5-(4-hydroxycyclohexyl)-8-(morpholinomethyl)pyrimido [4,5-c]isoquinolin-6(5H)-one] | 6.61 |
| CN1CCN(Cc2ccc3c(c2)c(=O)n([C@H]2CC[C@H](O)CC2)c2nc(NCCCC(F)(F)F)ncc32)CC1 [Compound 25, trans-5-(4-hydroxycyclohexyl)-8-((4-methylpiperazin-1-yl)methyl)-3-((4,4,4-trifluorobutyl)amino)pyrimido [4,5-c]isoquinolin-6(5H)-one] | 5.77 |
| CCC1(CNc2ncc3c4ccc(CN5CCN(C)CC5)cc4c(=O)n([C@H]4CC[C@H](O)CC4)c3n2)CCC1 [Compound 18, trans-3-(((1-Ethylcyclobutyl)methyl)amino)-5-(4-hydroxycyclohexyl)-8-((4-methylpiperazin-1-yl)methyl)pyrimido[4,5-c]isoquinolin-6(5H)-one] | 6.56 |
| CC1(O)CCC(n2c(=O)c3ccccc3c3cnc(NCC4CC4)nc32)CC1 (stereo not drawn) [Compound 121, trans-3-((Cyclopropylmethyl)amino)-5-(4-hydroxy-4-methylcyclohexyl)pyrimido[4,5-c]isoquinolin-6(5H)-one] | 6.21 |
| O=c1c2cc(N3CCNCC3)ccc2c2cnc(NCC3CC3)nc2n1[C@H]1CC[C@H](O)CC1 [Compound 174] | 6.77 |
| O=c1c2cc(N3CCN4CCC[C@@H]4C3)ccc2c2cnc(NCC3CC3)nc2n1[C@H]1CC[C@H](O)CC1 [Compound 103, trans-3-((Cyclopropylmethyl)amino)-8-((R)-hexahydropyrrolo[1,2-a]pyrazin-2(1H)-yl)-5-(4-hydroxycyclohexyl)pyrimido [4,5-c]isoquinolin-6(5H)-one] | 6.89 |
| CCCCNc1ncc2c3ccc(N4CCOCC4)cc3c(=O)n([C@H]3CC[C@H](O)CC3)c2n1 [Compound 62, trans-3-(Butylamino)-5-(4-hydroxycyclohexyl)-8-morpholinopyrimido[4,5-c]isoquinolin-6(5H)-one] | 7.02 |
| CCCCNc1ncc2c3ccccc3c(=O)n(C3CC4(CC(O)C4)C3)c2n1 (stereo not shown) [Compound 112, 3-(Butylamino)-5-(6-hydroxyspiro[3,3]heptan-2-yl)pyrimido[4,5-c]isoquinolin-6(5H)-one] | 6.33 |
| O=c1c2cc(N3CCC(N4CCCC4)CC3)ccc2c2cnc(NCC3CC3)nc2n1[C@H]1CC[C@H](O)CC1 [Compound 158] | 7.02 |
| O=c1c2cc(CN3CCOCC3)ccc2c2cnc(NCC3CC3)nc2n1[C@H]1CC[C@H](O)CC1 [Compound 45, trans-3-((Cyclopropylmethyl)amino)-5-(4-hydroxycyclohexyl)-8-(morpholinomethyl)pyrimido [4,5-c]isoquinolin-6(5H)-one] | 6.83 |
| O=c1c2cc(N3CCN(CC(F)F)CC3)ccc2c2cnc(NCC3CC3)nc2n1[C@H]1CC[C@H](O)CC1 [Compound 105, trans-3-((Cyclopropylmethyl)amino)-8-(4-(2,2-difluoroethyl)piperazin-1-yl)-5-(4-hydroxycyclohexyl)pyrimido [4,5-c]isoquinolin-6(5H)-one] | 6.45 |
| O=c1c2cc(N3CCN(C4CC4)CC3)ccc2c2cnc(NCC3CC3)nc2n1[C@H]1CC[C@H](O)CC1 [Compound 110, trans-3-((Cyclopropylmethyl)amino)-8-(4-cyclopropylpiperazin-1-yl)-5-(4-hydroxycyclohexyl)pyrimido [4,5-c]isoquinolin-6(5H)-one] | 6.32 |
| C[C@]1(O)CC[C@H](n2c(=O)c3cc(CN4CCOCC4)ccc3c3cnc(NCC4CC4)nc32)CC1 [Compound 46, trans-3-((Cyclopropylmethyl)amino)-5-(4-hydroxy-4-methylcyclohexyl)-8-(morpholinomethyl)pyrimido [4,5-c]isoquinolin-6(5H)-one] | 6.93 |
| O=c1c2ccccc2c2cnc(NCC3CC3)nc2n1[C@H]1CC[C@H](O)CC1 [Compound 114, trans-3-((Cyclopropylmethyl)amino)-5-(4-hydroxycyclohexyl)pyrimido [4,5-c]isoquinolin-6(5H)-one] | 6.13 |
| CC(C)(C)OC(=O)C1CCN(Cc2ccc3c(c2)c(=O)n([C@H]2CC[C@H](O)CC2)c2nc(NCC4CC4)ncc32)CC1 [Compound 201, trans-tert-Butyl 1-((3-((cyclopropylmethyl)amino)-5-(4-hydroxycyclohexyl)-6-oxo-5,6-dihydropyrimido[4,5-c]isoquinolin-8-yl)methyl)piperidine-4-carboxylate] | 7.14 |

Next, values leading:

| pEC50 | Compound |
| --- | --- |
| 7.59 | CCOC(=O)C1CCN(Cc2ccc3c(c2)c(=O)n([C@H]2CC[C@H](O)CC2)c2nc(NCC4CC4)ncc32)CC1 [Compound 50, trans-Ethyl 1-((3-((Cyclopropylmethyl)amino)-5-(4-hydroxycyclohexyl)-6-oxo-5,6-dihydropyrimido[4,5-c]isoquinolin-8-yl)methyl)piperidine-4-carboxylate] |
| 7.84 | CC(C)CCNc1ncc2c3ccc(CN4CCN(c5ccncc5)CC4)cc3c(=O)n([C@H]3CC[C@H](O)CC3)c2n1 [Compound 223, trans-5-(4-Hydroxycyclohexyl)-3-(isopentylamino)-8-((4-(pyridin-4-yl)piperazin-1-yl)methyl)pyrimido[4,5-c]isoquinolin-6(5H)-one] |
| 8.43 | CCC[C@H](C)Nc1ncc2c3ccc(CN4CCN(C(C)(C)C)CC4)cc3c(=O)n([C@H]3CC[C@H](O)CC3)c2n1 [Compound 215] |
| 7.30 | O=c1c2cc(CN3CCN4CCC[C@H]4C3)ccc2c2cnc(NCC3CC3)nc2n1[C@H]1CC[C@H](O)CC1 [Compound 157] |
| 8.38 | CC(C)(C)N1CCN(Cc2ccc3c(c2)c(=O)n([C@H]2CC[C@H](O)CC2)c2nc(NCC4CC4)ncc32)CC1 [Compound 60, trans-8-((4-(tert-butyl)piperazin-1-yl)methyl)-3-((cyclopropylmethyl)amino)-5-(4-hydroxycyclohexyl)pyrimido [4,5-c]isoquinolin-6(5H)-one] |
| 7.46 | CCCCNc1ncc2c3ccc(N4CCn5ncnc5C4)cc3c(=O)n([C@H]3CC[C@H](O)CC3)c2n1 [Compound 80, trans-3-(Butylamino)-8-(5,6-dihydro-[1,2,4]triazolo[1,5-a]pyrazin-7(8H)-yl)-5-(4-hydroxycyclohexyl)pyrimido [4,5-c]isoquinolin-6(5H)-one] |
| 7.25 | CCCCNc1ncc2c3ccc(CN4CCN(C)CC4)cc3c(=O)n(C3CC4(CC(O)C4)C3)c2n1 (stereo not shown) [Compound 14, 3-(Butylamino)-5-(6-hydroxyspiro[3.3]heptan-2-yl)-8-((4-methylpiperazin-1-yl)methyl)pyrimido[4,5-c]isoquinolin-6(5H)-one] |
| 7.54 | CCCCNc1ncc2c3ccc(CN4CCN(C)CC4)cc3c(=O)n([C@H]3CC[C@H](O)CC3)c2n1 [Compound 3, trans-3-(Butylamino)-5-(4-hydroxycyclohexyl)-8-((4-methylpiperazin-1-yl)methyl)pyrimido[4,5-c]isoquinolin-6(5H)-one] |
| 7.68 | CCCCNc1ncc2c3ccc(N4CCN5CCC[C@H]5C4)cc3c(=O)n([C@H]3CC[C@H](O)CC3)c2n1 [Compound 73, trans-3-(Butylamino)-8-((S)-hexahydropyrrolo[1,2-a]pyrazin-2(1H)-yl)-5-((1r,4S)-4-hydroxycyclohexyl)pyrimido [4,5-c]isoquinolin-6(5H)-one] |
| 7.48 | CCCCNc1ncc2c3ccc(N4CCC(N5CCCC5)CC4)cc3c(=O)n([C@H]3CC[C@H](O)CC3)c2n1 [Compound 71, trans-3-(Butylamino)-5-(4-hydroxycyclohexyl)-8-(4-(pyrrolidin-1-yl)piperidin-1-yl)pyrimido[4,5-c]isoquinolin-6(5H)-one] |
| 7.15 | C[C@@H]1CN(c2ccc3c(c2)c(=O)n([C@H]2CC[C@H](O)CC2)c2nc(NCC4CC4)ncc32)CCN1C [Compound 106, trans-3-((Cyclopropylmethyl)amino)-8-((R)-3,4-dimethylpiperazin-1-yl)-5-(4-hydroxycyclohexyl)pyrimido [4,5-c]isoquinolin-6(5H)-one] |
| 7.54 | CN1CCN(Cc2ccc3c(c2)c(=O)n([C@H]2CC[C@H](N)CC2)c2nc(NCC4CC4)ncc32)CC1 [Compound 185, trans-5-(4-aminocyclohexyl)-3-((cyclopropylmethyl)amino)-8-((4-methylpiperazin-1-yl)methyl)pyrimido[4,5-c]isoquinolin-6(5H)-one] |
